According to US4130637A, “Anti-plaque agents” (Colgate-Palmolive Company, priority 1977, dated 1978):
Structures can show the parent of a compound that is named as a salt.

Assays:
[1] = In vivo stain formation test on beagles (oral spray); parameters: species or system Beagle dogs
Description: This treatment was continued daily for 7 weeks. […] Score results range from 0 to 4:
1 stain present covering one-fourth of tooth surface;
2 stain present covering one-half of tooth surface;
3 stain present covering three-fourths of tooth surface;
4 stain present covering entire tooth surface.
(§1) The animals used in these studies were registered Beagle dogs 6 to 8 months of age, weighing 8 to 10 kilos. The animals were kept in good health and had not received any treatment for at least three weeks prior to the start of a study. They were anaesthesized (Na-Nembutal 25-30 mgs/kg) and received a complete dental prophylaxis. Disclosing solution (TRACE, Erythrosine, Lorvic St. Louis, Mo. U.S.A.) was used to insure the complete removal of soft and hard dental deposits. The dogs receive this diet exclusively -- ground Purina Dog Chow soaked in water for at least two hours to form a soft mush. In addition, each animal receives approximately one-half can of ground beef (no chunks). No hard substances were permitted for the duration of the study. The animals were treated once daily with the test solutions (approx. 6 to 9 ml.) using a gentle spray over all surfaces of dentition. Treatments continued at least five days per week for the duration of the experiment. Each animal was examined weekly for plaque, and stain. Photographs were taken by the examining investigator immediately after the prophylaxis and at every examination. Before starting with the plaque study, the groups were balanced with respect to plaque formation.

[2] = In vivo plaque test on beagles (disclosing solution); parameters: species or system Beagle dogs; details: for PLAQUE Mean Score: Table II, score 1-4, 20 teeth per beagle, placebo 2.19, benzethonium chloride at .075%; for PLAQUE % Diff.: versus placebo, Signif. printed: 50/50 mixture N.S., 90% betaine 95%, Hibitane 95%, .075% benzethonium chloride 99%
Description: as §1, with “The animals were kept in good health and had not received any treatment for at least three weeks prior to the start of a study.” left out

A. naeslundi = assay: Minimum inhibitory concentration, test tube serial dilution test; format: cell-based, Actinomycetis naeslundii; details: Actinomyces naeslundii, Gram Positive
Description: (§2) The antimicrobial nature of the instant novel nontoxic compounds was shown by a standard test tube serial dilution test in which an appropriate number of test tubes of broth containing decreasing concentration of the test agent was innoculated with the test organism (0.1% in 95% ethyl alcohol). After a suitable period of incubation, the tubes were examined for the presence or absence of growth. The activity of the test agent was the lowest concentration which inhibited the growth of the organism and is expressed as the minimal inhibitory concentration in μgm/ml.

T. ment. = assay: as above; format: cell-based, Trichophyton mentogrophytes; details: Trichophyton, mold
Description: as §2

Strep. sanguis = assay: as above; format: cell-based; details: Streptococcus, Gram Positive
Description: as §2

Staphylococcus aureus = assay: as above; format: cell-based; details: S. aureus, Gram Positive
Description: as §2

Strep. mutans = assay: as above; format: cell-based; details: Streptococcus mutans, Gram Positive
Description: as §2

C. albicans = assay: as above; format: cell-based; details: Candida albicans, yeast
Description: as §2

Ps. aeruginosa = assay: as above; format: cell-based; details: Pseudomonas aeruginosa, Gram Negative
Description: as §2

A. niger = assay: as above; format: cell-based; details: Aspergillus niger, mold
Description: as §2

E. Coli = assay: as above; format: cell-based; details: Escherichia coli, Gram Negative
Description: as §2

bacteria = details: Stedman et al. 1953; cited from earlier work
micro-organisms [3] = assay: Antimicrobial activity (general statements); format: cell-based
Description: as §2, with “μgm/ml. As shown in the following table of anitmicrobial data, the betaines of this invention are active against a variety of micro-organisms with maximum activity when the higher alkyl group has 14-16 carbons.” for “μgm/ml.”

micro-organisms [4] = details: reported by Swain et al. and Stedman et al.; cited from earlier work
[5] = Staining of teeth / oral surfaces (general statements); format: in vivo; details: under use conditions

SMILES | MIC (A. naeslundi) [µg/mL] | MIC (T. ment.) [µg/mL] | MIC (Strep. sanguis) [µg/mL] | MIC (Staphylococcus aureus) [µg/mL] | MIC (Strep. mutans) [µg/mL] | MIC (C. albicans) [µg/mL] | MIC (Ps. aeruginosa) [µg/mL] | MIC (A. niger) [µg/mL] | MIC (E. Coli) [µg/mL] | also measured
CC(C)(C)CC(C)(C)c1ccc(OCCOCC[N+](C)(C)Cc2ccccc2)cc1 [Benzethonium Chloride, benzethonium chloride] |  |  |  |  |  |  |  |  |  | Mean Stain Result ([1]; 0.1% aqueous solution, daily spray, 7 weeks, 10 dogs, score 0-4, deionized water 0.07): 0.59; increase in staining ([1]; 0.1% solution, 7 weeks, versus deionized water): 742%; No. of dogs w. Stain ([1]; Table II, dogs with stain/dogs tested, placebo 1/8, benzethonium chloride at .075%): 3/7; Mean Stain Score ([1]; Table II, score 0-4, placebo 0.388, benzethonium chloride at .075%): 0.53; PLAQUE Mean Score [2]: 1.80; PLAQUE % Diff. [2]: -25.0%
CCCCCCCCCCCC[N+](C)(C)CCCCCCCCCCC(=O)O [C12 H25 [RN^+ (CH3)2 (CH2)10 COOH] Pr^-] | 12.5 | 12.5 | 12.5 | 6.25 | 12.5 | 25 | 50 | 50 | 100 | 
CCCCCCCCCCCCCC[N+](C)(C)CCCCCCCCCCC(=O)[O-] [C14 H29 RN^+ CH3)2 (CH2)10 COOH, N-(10-Carboxydecyl)-N, N-dimethyltetradecanaminium hydroxide, inner salt] | 0.39 | 0.78 | 1.56 | 1.56 | 1.56 | 3.12 | 100 | 50 | 100 | 
CCCCCCCCCCCCCC[N+](C)(C)CCCCCCCCCCC(=O)O.[Br-] [C14 H29 [RN^+ (CH3)2 (CH2)10 COOH] Pr^-, tetradecyldimethyl(10-carboxydecyl)-ammonium bromide] | 0.39 | 3.12 | 1.56 | 0.39 | 1.56 | 3.12 | 50 | 25 | 100 | 
CCCCCCCCCCCCCCCC[N+](C)(C)CC(=O)[O-] [C16 H33 N^+ (CH3)2 CH2 COO^-] |  |  |  |  |  |  |  |  |  | bactericidal activity relative to related non-betaine [C16 H33 N(CH3)2 CH2 C6 H5 ]Cl (bacteria): less than one-tenth
CCCCCCCCCCCCCCCC[N+](C)(C)CCCCCCCCCCC(=O)[O-] [C16 H33 RN^+ CH3)2 (CH2)10 COOH, N-(10-Carboxydecyl)-N,N-dimethylhexadecanaminium hydroxide, inner salt] | 0.78 | 1.56 | 0.78 | 1.56 | 1.56 | 3.12 | 100 | 100 | 100 | antimicrobial activity (micro-organisms [3]): the activity is not diminished and is sufficient for the exhibition of useful antimicrobial and anti-plaque properties
CCCCCCCCCCCCCCCC[N+](C)(C)CCCCCCCCCCC(=O)O.[Br-] [C16 H33 [RN^+ (CH3)2 (CH2)10 COOH] Pr^-, Hexadecyldimethyl(10-carboxydecyl)ammonium bromide] | 0.78 | 12.5 | 1.56 | 0.39 | 1.56 | 3.12 | 50 | 50 | 100 | antimicrobial properties (micro-organisms [4]): reported to have antimicrobial properties
[H]/N=C(\N/C(=N/[H])NCCCCCCNC(=N)NC(=N)Nc1ccc(Cl)cc1)Nc1ccc(Cl)cc1 [Hibitane, Chlorhexidine] |  |  |  |  |  |  |  |  |  | staining / discoloration [5]: noticeable discolorations; Mean Stain Score ([1]; dog, in vivo): 0.956; No. of dogs w. Stain ([1]; dog, in vivo): 8/8; degree of staining ([1]; dog, in vivo): significantly increased staining; PLAQUE Mean Score [2]: 1.32; PLAQUE % Diff. [2]: -39.7%
